Assay results as given in patent US9315458B2, “Nitrogen-containing heterocyclic compound” (Takeda Pharmaceutical Company Limited, priority 2014, dated 2016).

Molecular target: T1, human M1 receptor (hCHRM1) (Homo sapiens, UniProt P11229)
T1 construct: expressed in transfected cells
T1 sequence (P11229 1-460): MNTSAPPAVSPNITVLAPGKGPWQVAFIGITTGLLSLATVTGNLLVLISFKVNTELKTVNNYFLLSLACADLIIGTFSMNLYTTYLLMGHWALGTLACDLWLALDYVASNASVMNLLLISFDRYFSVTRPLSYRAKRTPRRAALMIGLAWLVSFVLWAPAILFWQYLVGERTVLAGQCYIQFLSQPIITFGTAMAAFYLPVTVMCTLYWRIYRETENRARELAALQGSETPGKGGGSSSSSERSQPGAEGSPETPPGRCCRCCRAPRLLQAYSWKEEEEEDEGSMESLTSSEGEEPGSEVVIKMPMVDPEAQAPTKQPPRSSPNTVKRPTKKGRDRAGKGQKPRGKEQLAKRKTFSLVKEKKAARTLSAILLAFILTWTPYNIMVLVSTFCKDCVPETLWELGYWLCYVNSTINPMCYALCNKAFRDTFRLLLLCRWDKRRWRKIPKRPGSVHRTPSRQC
Test: Measurement of M1 receptor positive allosteric modulator (M1PAM) activity, calcium fluorescence (FLIPRtetra) with acetylcholine at EC20
Type: cell-based
Details: for activity (%) at 10 μM: 10 μM test compound, 100% = acetylcholine 1 μM, 0% = DMSO, acetylcholine at EC20; for EC50: inflection point of concentration-dependent curve, CHO-K1 cells expressing hCHRM1, acetylcholine at EC20 (final 0.6-0.8 nM), read-out: IP value
Method in brief: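 CHO-K1 cells stably expressing hCHRM1, Fluo-4 AM loaded; compound added with acetylcholine at EC20 (final 0.6-0.8 nM), fluorescence read 1 min. Activity normalised to 1 μM acetylcholine (100%) and DMSO (0%); IP values taken as inflection point of the concentration-response curve.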

Which results are given for `CNC(=O)c1ccc(Cc2cc3c(c(C)c2C)CN([C@H]2COCC[C@@H]2O)C3=O)cc1F` [Example 19, 1,5-anhydro-2,4-dideoxy-2-(6-(3-fluoro-4-(methylcarbamoyl)benzyl)-4,5-dimethyl-1-oxo-1,3-dihydro-2H-isoindol-2-yl)-L-threo-pentitol]?
activity (%) at 10 μM: 101%; EC50: 2 nM

With `Cc1cc2c(cc1Cc1ccc(-n3cccn3)cc1)C(=O)N([C@H]1COCC[C@@H]1O)C2` [Example 21, 1,5-anhydro-2,4-dideoxy-2-(5-methyl-1-oxo-6-(4-(1H-pyrazol-1-yl)benzyl)-1,3-dihydro-2H-isoindol-2-yl)-L-threo-pentitol] as the molecule, how does the “activity (%) at 10 μM” value read?
Its value is 106%.

And the EC50?
Its EC50 is 6.2 nM.

How did the “activity (%) at 10 μM” value turn out when `Cc1c(Cc2ccc(OC(F)F)cc2)cc2c(c1C)CN([C@H]1COCC[C@@H]1O)C2=O` [Example 22, 1,5-anhydro-2,4-dideoxy-2-(6-(4-(difluoromethoxy)benzyl)-4,5-dimethyl-1-oxo-1,3-dihydro-2H-isoindol-2-yl)-L-threo-pentitol] was run?
Its value is 110%.

What about the EC50 of the same molecule?
Its EC50 is 32 nM.

Which results are given for `COc1cc(Cc2cc3c(c(C)c2C)CN([C@H]2COCC[C@@H]2O)C3=O)ccc1F` [Example 23, 1,5-anhydro-2,4-dideoxy-2-(6-(4-fluoro-3-methoxybenzyl)-4,5-dimethyl-1-oxo-1,3-dihydro-2H-isoindol-2-yl)-L-threo-pentitol]?
activity (%) at 10 μM: 100%; EC50: 46 nM

For `COc1ccc(Cc2cc3c(c(Cl)c2C)CN([C@H]2COCC[C@@H]2O)C3=O)cc1` [Example 24, 1,5-anhydro-2-(4-chloro-6-(4-methoxybenzyl)-5-methyl-1-oxo-1,3-dihydro-2H-isoindol-2-yl)-2,4-dideoxy-L-threo-pentitol], which “activity (%) at 10 μM” value is on record?
Its value is 88%.

And the EC50?
Its EC50 is 4.3 nM.

For `Cc1c(Cc2ccc(C#N)c(F)c2)cc2c(c1C)CN([C@H]1COCC[C@@H]1O)C2=O` [Example 26, 1,5-anhydro-2-(6-(4-cyano-3-fluorobenzyl)-4,5-dimethyl-1-oxo-1,3-dihydro-2H-isoindol-2-yl)-2,4-dideoxy-L-threo-pentitol], which “activity (%) at 10 μM” value is on record?
The value was 99%.

What about the EC50 of the same molecule?
Its EC50 is 9.2 nM.

Which “activity (%) at 10 μM” value does the source give for `Cc1cc2c(cc1Cc1ccc(-n3cccn3)cc1)C(=O)N(CC1CCCO1)C2` (centres unmarked) [Example 36, 5-methyl-6-(4-(1H-pyrazol-1-yl)benzyl)-2-(tetrahydrofuran-2-ylmethyl)isoindolin-1-one] here?
The value was 107%.

What about the EC50 of the same molecule?
Its EC50 is 83 nM.

What does the source list for `Cc1cc2c(cc1Cc1ccc(-c3cn(C)nn3)cc1)C(=O)N(CC1CCCO1)C2` (centres unmarked) [Example 49, 5-methyl-6-(4-(1-methyl-1H-1,2,3-triazol-4-yl)benzyl)-2-(tetrahydrofuran-2-ylmethyl)isoindolin-1-one]?
activity (%) at 10 μM: 97%; EC50: 31 nM

Which results are given for `Cc1cc2c(cc1Cc1ccc(-c3cn(C)nn3)cc1F)C(=O)N(CC1CCCO1)C2` (centres unmarked) [Example 54, 6-(2-fluoro-4-(1-methyl-1H-1,2,3-triazol-4-yl)benzyl)-5-methyl-2-(tetrahydrofuran-2-ylmethyl)isoindolin-1-one]?
activity (%) at 10 μM: 92%; EC50: 37 nM

For `CCc1cc2c(cc1Cc1ccc(-n3cccn3)cc1)C(=O)N(CC1CCCO1)C2` (centres unmarked) [Example 58, 5-ethyl-6-(4-(1H-pyrazol-1-yl)benzyl)-2-(tetrahydrofuran-2-ylmethyl)isoindolin-1-one], which “activity (%) at 10 μM” value is on record?
Its value is 100%.

What about the EC50 of the same molecule?
Its EC50 is 95 nM.

`Cn1cc(-c2ccc(Cc3cc4c(cc3Cl)CN(CC3CCCO3)C4=O)cc2)nn1` (centres unmarked) [Example 60, 5-chloro-6-(4-(1-methyl-1H-1,2,3-triazol-4-yl)benzyl)-2-(tetrahydrofuran-2-ylmethyl)isoindolin-1-one] was tested. Which “activity (%) at 10 μM” value did it give?
Its value is 94%.

And the EC50?
The EC50 was 72 nM.

`Cn1cc(-c2ccc(Cc3cc4c(cc3C3CC3)CN(CC3CCCO3)C4=O)cc2)nn1` (centres unmarked) [Example 61, 5-cyclopropyl-6-(4-(1-methyl-1H-1,2,3-triazol-4-yl)benzyl)-2-(tetrahydrofuran-2-ylmethyl)isoindolin-1-one] was tested. Which “activity (%) at 10 μM” value did it give?
The value was 97%.

What about the EC50 of the same molecule?
Its EC50 is 35 nM.

Which results are given for `O=C1c2cc(Cc3ccc(-n4cccn4)cc3)c(C3CC3)cc2CN1CC1CCCO1` (centres unmarked) [Example 62, 5-cyclopropyl-6-(4-(1H-pyrazol-1-yl)benzyl)-2-(tetrahydrofuran-2-ylmethyl)isoindolin-1-one]?
activity (%) at 10 μM: 103%; EC50: 95 nM

For `Cc1cc2c(cc1Cc1ccc(-c3cnn(C)c3)cc1)C(=O)N(CC1CCCO1)C2` (centres unmarked) [Example 68, 5-methyl-6-(4-(1-methyl-1H-pyrazol-4-yl)benzyl)-2-(tetrahydrofuran-2-ylmethyl)isoindolin-1-one], which “activity (%) at 10 μM” value is on record?
Its value is 95%.

And the EC50?
Its EC50 is 96 nM.

How did the “activity (%) at 10 μM” value turn out when `Cc1c(Cc2ccc(-n3cccn3)cc2)cc2c(c1C)CN(CC1CCCO1)C2=O` (centres unmarked) [Example 80, 4,5-dimethyl-6-(4-(1H-pyrazol-1-yl)benzyl)-2-(tetrahydrofuran-2-ylmethyl)isoindolin-1-one] was run?
Its value is 90%.

What about the EC50 of the same molecule?
The EC50 was 14 nM.

Which results are given for `Cc1c(Cc2ccc(-c3cnn(C)c3)cc2)cc2c(c1C)CN(CC1CCCO1)C2=O` (centres unmarked) [Example 84, 4,5-dimethyl-6-(4-(1-methyl-1H-pyrazol-4-yl)benzyl)-2-(tetrahydrofuran-2-ylmethyl)isoindolin-1-one]?
activity (%) at 10 μM: 104%; EC50: 52 nM

Which results are given for `Cc1c(Cc2ccc(-c3ccn(C)n3)cc2)cc2c(c1C)CN(CC1CCCO1)C2=O` (centres unmarked) [Example 85, 4,5-dimethyl-6-(4-(1-methyl-1H-pyrazol-3-yl)benzyl)-2-(tetrahydrofuran-2-ylmethyl)isoindolin-1-one]?
activity (%) at 10 μM: 105%; EC50: 41 nM

With `Cc1c(Cc2ccc(-c3cn(C)nn3)cc2F)cc2c(c1C)CN(CC1CCCO1)C2=O` (centres unmarked) [Example 103, 6-(2-fluoro-4-(1-methyl-1H-1,2,3-triazol-4-yl)benzyl)-4,5-dimethyl-2-(tetrahydrofuran-2-ylmethyl)isoindolin-1-one] as the molecule, how does the “activity (%) at 10 μM” value read?
Its value is 94%.

What about the EC50 of the same molecule?
Its EC50 is 6 nM.

Which “activity (%) at 10 μM” value does the source give for `Cc1cc2c(cc1Cc1ccc(-n3cccn3)cc1)C(=O)N(CC(C)(C)O)C2` [Example 104, 2-(2-hydroxy-2-methylpropyl)-5-methyl-6-(4-(1H-pyrazol-1-yl)benzyl)isoindolin-1-one] here?
Its value is 101%.

What about the EC50 of the same molecule?
The EC50 was 54 nM.

How did the “activity (%) at 10 μM” value turn out when `CCc1cc2c(cc1Cc1ccc(-c3cn(C)nn3)cc1)C(=O)N(CC1CCCO1)C2` (centres unmarked) [Example 105, 5-ethyl-6-(4-(1-methyl-1H-1,2,3-triazol-4-yl)benzyl)-2-(tetrahydrofuran-2-ylmethyl)isoindolin-1-one] was run?
Its value is 92%.

And the EC50?
The EC50 was 10 nM.

Which “activity (%) at 10 μM” value does the source give for `Cc1c(Cc2ccc(-n3cccn3)cc2)cc2c(c1F)CN([C@H]1CCC[C@@H]1O)C2=O` [Example 107, 4-fluoro-2-((1S,2S)-2-hydroxycyclopentyl)-5-methyl-6-(4-(1H-pyrazol-1-yl)benzyl)isoindolin-1-one] here?
Its value is 102%.

And the EC50?
Its EC50 is 14 nM.

Which results are given for `Cc1c(Cc2ccc(-c3ccn(C)n3)cc2)cc2c(c1C)CN(C[C@@H]1CCCO1)C2=O` [Example 109, 4,5-dimethyl-6-(4-(1-methyl-1H-pyrazol-3-yl)benzyl)-2-((2S)-tetrahydrofuran-2-ylmethyl)isoindolin-1-one]?
activity (%) at 10 μM: 100%; EC50: 23 nM

With `Cc1c(Cc2ccc(-c3cn(C)nn3)cc2)cc2c(c1C)CN(C[C@H]1CCCO1)C2=O` [Example 110, 4,5-dimethyl-6-(4-(1-methyl-1H-1,2,3-triazol-4-yl)benzyl)-2-((2R)-tetrahydrofuran-2-ylmethyl)isoindolin-1-one] as the molecule, how does the “activity (%) at 10 μM” value read?
Its value is 77%.

And the EC50?
The EC50 was 24 nM.

How did the “activity (%) at 10 μM” value turn out when `Cc1c(Cc2ccc(-c3ccn(C)n3)cc2)cc2c(c1F)CN([C@H]1CCC[C@@H]1O)C2=O` [Example 111, 4-fluoro-2-((1S,2S)-2-hydroxycyclopentyl)-5-methyl-6-(4-(1-methyl-1H-pyrazol-3-yl)benzyl)isoindolin-1-one] was run?
Its value is 103%.

And the EC50?
The EC50 was 26 nM.

`Cc1c(Cc2ccc(-c3ccn(C)n3)cc2)cc2c(c1C)CN(CC(C)(C)O)C2=O` [Example 114, 2-(2-hydroxy-2-methylpropyl)-4,5-dimethyl-6-(4-(1-methyl-1H-pyrazol-3-yl)benzyl)isoindolin-1-one] was tested. Which “activity (%) at 10 μM” value did it give?
The value was 96%.

And the EC50?
The EC50 was 15 nM.

With `Cc1c(Cc2ccc(-n3cccn3)cc2F)cc2c(c1C)CN(C[C@@H]1CCCO1)C2=O` [Example 115, 6-(2-fluoro-4-(1H-pyrazol-1-yl)benzyl)-4,5-dimethyl-2-((2S)-tetrahydrofuran-2-ylmethyl)isoindolin-2-one] as the molecule, how does the “activity (%) at 10 μM” value read?
The value was 92%.

What about the EC50 of the same molecule?
Its EC50 is 25 nM.

`CCc1cc2c(cc1Cc1ccc(-c3ccn(C)n3)cc1)C(=O)N([C@H]1COCC[C@@H]1O)C2` [Example 116, 5-ethyl-2-[(3S,4S)-4-hydroxytetrahydro-2H-pyran-3-yl]-6-[4-(1-methyl-1H-pyrazol-3-yl)benzyl]-2,3-dihydro-1H-isoindol-1-one] was tested. Which “activity (%) at 10 μM” value did it give?
Its value is 111%.

What about the EC50 of the same molecule?
The EC50 was 6.1 nM.

For `CCc1cc2c(cc1Cc1ccc(-c3cn(C)nn3)cc1)C(=O)N(CC(C)(C)O)C2` [Example 118, 5-ethyl-2-(2-hydroxy-2-methylpropyl)-6-(4-(1-methyl-1H-1,2,3-triazol-4-yl)benzyl)isoindolin-1-one], which “activity (%) at 10 μM” value is on record?
Its value is 106%.

What about the EC50 of the same molecule?
Its EC50 is 25 nM.
